Measured values taken from patent US20230002357A1, “7-PYRIMIDINE-2-YL-OXY-INDAZOLE DERIVATIVES AND THEIR USE AS HERBICIDES” (SYNGENTA CROP PROTECTION AG, priority 2019, published 2023).

Key:
Assay type in all cases: in vivo
Settings in all cases: 250 g/ha, evaluated after 13 days
Setaria faberi (SETFA) [1] = assay: Post-emergence Test, glasshouse, SETFA
Method: (§1) Seeds of a variety of test species are sown in standard soil in pots Amaranthus retoflexus (AMARE), Echinochloa crus-galli (ECHCG), Setaria faberi (SETFA)). After cultivation for one day (pre-emergence) or after 8 days cultivation (post-emergence) under controlled conditions in a glasshouse (at 24/16° C., day/night; 14 hours light; 65% humidity), the plants are sprayed with an aqueous spray solution derived from the formulation of the technical active ingredient in acetone/water (50:50) solution containing 0.5% Tween™ 20 (polyoxyethelyene sorbitan monolaurate, CAS RN 9005-64-5). Compounds are applied at 250 g/ha unless otherwise stated. The test plants are then grown in a glasshouse under controlled conditions in a glasshouse (at 24/16° C., day/night; 14 hours light; 65% humidity) and watered twice daily. After 13 days for pre- and post-emergence, the test is evaluated for the percentage damage caused to the plant. The biological activities are shown in the following table on a five-point scale (5=81-100%; 4=61-80%; 3=41-60%; 2=21-40%; 1=0-20%).

ABUTH [2] = assay: Pre-emergence Test, glasshouse, ABUTH
Method: as §1

IPOHE [3] = assay: Post-emergence Test, glasshouse, IPOHE
Method: as §1

[4] = system: Amaranthus retoflexus (AMARE); assay: Post-emergence Test, glasshouse, AMARE
Method: as §1

IPOHE [5] = assay: Pre-emergence Test, glasshouse, IPOHE
Method: as §1

Setaria faberi (SETFA) [6] = assay: Pre-emergence Test, glasshouse, SETFA
Method: as §1

ABUTH [7] = assay: Post-emergence Test, glasshouse, ABUTH
Method: as §1

[8] = system: Amaranthus retoflexus (AMARE); assay: Pre-emergence Test, glasshouse, AMARE
Method: as §1

[9] = system: Echinochloa crus-galli (ECHCG); assay: Pre-emergence Test, glasshouse, ECHCG
Method: as §1

[10] = system: Echinochloa crus-galli (ECHCG); assay: Post-emergence Test, glasshouse, ECHCG
Method: as §1

SMILES	percentage damage caused to the plant, five-point scale, SETFA (Setaria faberi (SETFA) [1])	percentage damage caused to the plant, five-point scale, ABUTH (ABUTH [2])	percentage damage caused to the plant, five-point scale, IPOHE (IPOHE [3])	percentage damage caused to the plant, five-point scale, AMARE [4]	percentage damage caused to the plant, five-point scale, IPOHE (IPOHE [5])	percentage damage caused to the plant, five-point scale, SETFA (Setaria faberi (SETFA) [6])	percentage damage caused to the plant, five-point scale, ABUTH (ABUTH [7])	percentage damage caused to the plant, five-point scale, AMARE [8]	percentage damage caused to the plant, five-point scale, ECHCG [9]	percentage damage caused to the plant, five-point scale, ECHCG [10]
Cc1nn(CCCC(F)(F)F)c2c(Oc3ncc(Cl)cn3)cccc12 [Compound 1.021, 7-(5-chloropyrimidin-2-yl)oxy-3-methyl-1-(4,4,4-trifluorobutyl)indazole]	4 (4=61-80%)	3 (3=41-60%)	3 (3=41-60%)	1 (1=0-20%)	2 (2=21-40%)	5 (5=81-100%)	4 (4=61-80%)	5 (5=81-100%)		
N#Cc1ccc(Oc2ncc(Cl)cn2)c2c1c(Cl)nn2CCCC(F)(F)F [Compound 1.029]	1 (1=0-20%)	1 (1=0-20%)	1 (1=0-20%)	4 (4=61-80%)	1 (1=0-20%)	1 (1=0-20%)	1 (1=0-20%)	2 (2=21-40%)		
FC(F)(F)CCCn1nc(C(F)(F)F)c2cccc(Oc3ncc(Cl)cn3)c21 [Compound 1.022, 7-(5-chloropyrimidin-2-yl)oxy-1-(4,4,4-trifluorobutyl)-3-(trifluoromethyl)indazole]	5 (5=81-100%)	4 (4=61-80%)	4 (4=61-80%)	5 (5=81-100%)	4 (4=61-80%)	5 (5=81-100%)	5 (5=81-100%)	5 (5=81-100%)	5 (5=81-100%)	
Fc1cnc(Oc2cccc3c(Cl)nn(CCCC(F)(F)F)c23)nc1 [Compound 1.047]	4 (4=61-80%)	5 (5=81-100%)	5 (5=81-100%)	5 (5=81-100%)	3 (3=41-60%)	5 (5=81-100%)	5 (5=81-100%)	5 (5=81-100%)	5 (5=81-100%)	5 (5=81-100%)
FC(F)(F)CCCn1nc(Cl)c2c(Br)ccc(Oc3ncc(Cl)cn3)c21 [Compound 1.028]	3 (3=41-60%)	1 (1=0-20%)	1 (1=0-20%)	5 (5=81-100%)	1 (1=0-20%)	2 (2=21-40%)	2 (2=21-40%)	4 (4=61-80%)		
FC(F)(F)CCCn1nnc2cccc(Oc3ncc(Cl)cn3)c21 [Compound 1.020, 7-(5-chloropyrimidin-2-yl)oxy-1-(4,4,4-trifluorobutyl) benzotriazole]	5 (5=81-100%)	4 (4=61-80%)	2 (2=21-40%)	2 (2=21-40%)	2 (2=21-40%)	5 (5=81-100%)	3 (3=41-60%)	5 (5=81-100%)		
N#Cc1cc(Oc2ncc(Cl)cn2)c2c(c1)c(Cl)nn2CCCC(F)(F)F [Compound 1.030]	2 (2=21-40%)	1 (1=0-20%)	1 (1=0-20%)	4 (4=61-80%)	1 (1=0-20%)	1 (1=0-20%)	1 (1=0-20%)	1 (1=0-20%)		2 (2=21-40%)
FC(F)(F)CCCn1nc(Cl)c2c(Cl)cc(Cl)c(Oc3ncc(Cl)cn3)c21 [Compound 1.027]	3 (3=41-60%)	1 (1=0-20%)	1 (1=0-20%)	4 (4=61-80%)	1 (1=0-20%)	1 (1=0-20%)	2 (2=21-40%)	4 (4=61-80%)		4 (4=61-80%)
Fc1cc(Cl)cnc1Oc1cccc2c(Cl)nn(CCCC(F)(F)F)c12 [Compound 1.032]		1 (1=0-20%)	3 (3=41-60%)	5 (5=81-100%)	1 (1=0-20%)	4 (4=61-80%)	3 (3=41-60%)	3 (3=41-60%)	3 (3=41-60%)	3 (3=41-60%)
FC(F)(F)CCCn1nc(Cl)c2c(Cl)ccc(Oc3ncc(Cl)cn3)c21 [Compound 1.026]	5 (5=81-100%)	2 (2=21-40%)	2 (2=21-40%)	5 (5=81-100%)	1 (1=0-20%)	3 (3=41-60%)	4 (4=61-80%)	5 (5=81-100%)	5 (5=81-100%)	
FC(F)(F)CCCn1ncc2c(Cl)cc(Cl)c(Oc3ncc(Cl)cn3)c21 [Compound 1.018]	1 (1=0-20%)	1 (1=0-20%)	1 (1=0-20%)	1 (1=0-20%)	1 (1=0-20%)	1 (1=0-20%)	1 (1=0-20%)		1 (1=0-20%)	1 (1=0-20%)
FC(F)(F)CCCn1ncc2c(Br)ccc(Oc3ncc(Cl)cn3)c21 [Compound 1.025]	2 (2=21-40%)	1 (1=0-20%)	1 (1=0-20%)	2 (2=21-40%)	1 (1=0-20%)	2 (2=21-40%)	2 (2=21-40%)	1 (1=0-20%)		
N#Cc1cc(Oc2ncc(Cl)cn2)c2c(cnn2CCCC(F)(F)F)c1 [Compound 1.024]	1 (1=0-20%)	1 (1=0-20%)	1 (1=0-20%)	2 (2=21-40%)	1 (1=0-20%)	4 (4=61-80%)	2 (2=21-40%)	4 (4=61-80%)		
COc1cc(Oc2cccc3nnn(CCCC(F)(F)F)c23)ncn1 [Compound 1.023]	1 (1=0-20%)	1 (1=0-20%)	1 (1=0-20%)	1 (1=0-20%)	1 (1=0-20%)	1 (1=0-20%)	1 (1=0-20%)	1 (1=0-20%)		
